Measured values reported in PMC4411097, “Pachymic Acid Inhibits Growth and Induces Apoptosis of Pancreatic Cancer In Vitro and In Vivo by Targeting ER Stress” (PLoS ONE, 2015).

Test system: MIA PaCa-2 cells
Test: DNA microarray analysis (Affymetrix Human PrimeView);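 for Mean (MiaPaca-2 * PA): Log2-transformed RMA normalized probe set signal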
Assay type: cell-based
[1] = gene HNRNPM, probeset 11761514_at
[2] = gene IER5, probeset 11716629_at
[3] = gene IRAK2, probeset 11733240_at
[4] = gene LIF, probeset 11758619_s_at
[5] = gene LTB, probeset 11739657_a_at
[6] = gene MALAT1, probeset 11745723_a_at
[7] = gene MARS2, probeset 11729710_a_at
[8] = gene MARS2, probeset 11750890_a_at
[9] = gene MCL1, probeset 11715484_a_at
[10] = gene NAV3, probeset 11723147_a_at
[11] = gene NFKBIA, probeset 11745878_x_at
[12] = gene NFKBIA, probeset 11757894_x_at
[13] = gene PHLDA2, probeset 11744005_at
[14] = gene PLEKHG6, probeset 11733595_x_at
[15] = gene RPS4X, probeset 11761933_at
[16] = gene SAT1, probeset 11743036_s_at
[17] = gene SDC4, probeset 11717639_x_at
[18] = gene SDC4, probeset 11749921_a_at
[19] = gene SH3BP1, probeset 11728063_x_at
[20] = gene SLC3A2, probeset 11733071_a_at
[21] = gene SLC3A2, probeset 11741149_x_at
[22] = gene SLC3A2, probeset 11746697_a_at
[23] = gene SLC3A2, probeset 11753434_a_at
[24] = gene SLC16A6, probeset 11735090_s_at
[25] = gene SLC16A6, probeset 11754629_s_at
[26] = gene SMAGP, probeset 11719864_a_at

C=C(CC[C@@H](C(=O)O)[C@H]1[C@H](O)C[C@@]2(C)C3=C(CC[C@]12C)[C@@]1(C)CC[C@H](OC(C)=O)C(C)(C)[C@@H]1CC3)C(C)C [PA, Pachymic acid]
Fold-Change (MiaPaca-2 * PA vs. MiaPaca-2 * control) [1]: 1.65
Mean (MiaPaca-2 * PA) [1]: 9.69
Fold-Change (MiaPaca-2 * PA vs. MiaPaca-2 * control) (gene HNRNPM, probeset 11761516_x_at, MiaPaca-2): 1.50
Mean (MiaPaca-2 * PA) (gene HNRNPM, probeset 11761516_x_at, MiaPaca-2, PA-treated): 10.58
Fold-Change (MiaPaca-2 * PA vs. MiaPaca-2 * control) (gene HOOK1, probeset 11750347_a_at, MiaPaca-2): 1.50
Mean (MiaPaca-2 * PA) (gene HOOK1, probeset 11750347_a_at, MiaPaca-2, PA-treated): 3.97
Fold-Change (MiaPaca-2 * PA vs. MiaPaca-2 * control) [2]: 1.60
Mean (MiaPaca-2 * PA) [2]: 7.72
Fold-Change (MiaPaca-2 * PA vs. MiaPaca-2 * control) (gene IL12A, probeset 11756769_a_at, MiaPaca-2): 1.50
Mean (MiaPaca-2 * PA) (gene IL12A, probeset 11756769_a_at, MiaPaca-2, PA-treated): 5.04
Fold-Change (MiaPaca-2 * PA vs. MiaPaca-2 * control) [3]: 1.59
Mean (MiaPaca-2 * PA) [3]: 6.52
Fold-Change (MiaPaca-2 * PA vs. MiaPaca-2 * control) (gene KLHL29, probeset 11745365_at, MiaPaca-2): 1.51
Mean (MiaPaca-2 * PA) (gene KLHL29, probeset 11745365_at, MiaPaca-2, PA-treated): 5.04
Fold-Change (MiaPaca-2 * PA vs. MiaPaca-2 * control) (gene LIF, probeset 11726498_at): 1.55
Mean (MiaPaca-2 * PA) (gene LIF, probeset 11726498_at): 7.20
Fold-Change (MiaPaca-2 * PA vs. MiaPaca-2 * control) [4]: 1.55
Mean (MiaPaca-2 * PA) [4]: 9.50
Fold-Change (MiaPaca-2 * PA vs. MiaPaca-2 * control) (gene LRP8, probeset 11741376_a_at, MiaPaca-2): 1.53
Mean (MiaPaca-2 * PA) (gene LRP8, probeset 11741376_a_at, MiaPaca-2, PA-treated): 7.95
Fold-Change (MiaPaca-2 * PA vs. MiaPaca-2 * control) [5]: 1.54
Mean (MiaPaca-2 * PA) [5]: 6.97
Fold-Change (MiaPaca-2 * PA vs. MiaPaca-2 * control) (gene MAFF, probeset 11726611_x_at, MiaPaca-2): 1.50
Mean (MiaPaca-2 * PA) (gene MAFF, probeset 11726611_x_at, MiaPaca-2, PA-treated): 6.99
Fold-Change (MiaPaca-2 * PA vs. MiaPaca-2 * control) [6]: 1.55
Mean (MiaPaca-2 * PA) [6]: 9.40
Fold-Change (MiaPaca-2 * PA vs. MiaPaca-2 * control) [7]: 1.55
Mean (MiaPaca-2 * PA) [7]: 6.32
Fold-Change (MiaPaca-2 * PA vs. MiaPaca-2 * control) [8]: 1.61
Mean (MiaPaca-2 * PA) [8]: 6.51
Fold-Change (MiaPaca-2 * PA vs. MiaPaca-2 * control) [9]: 1.60
Mean (MiaPaca-2 * PA) [9]: 8.79
Fold-Change (MiaPaca-2 * PA vs. MiaPaca-2 * control) (gene MMP1, probeset 11741897_a_at, MiaPaca-2): 1.52
Mean (MiaPaca-2 * PA) (gene MMP1, probeset 11741897_a_at, MiaPaca-2, PA-treated): 5.59
Fold-Change (MiaPaca-2 * PA vs. MiaPaca-2 * control) [10]: 1.54
Mean (MiaPaca-2 * PA) [10]: 5.19
Fold-Change (MiaPaca-2 * PA vs. MiaPaca-2 * control) (gene NFKBIA, probeset 11744000_a_at): 1.65
Fold-Change (MiaPaca-2 * PA vs. MiaPaca-2 * control) [11]: 1.67
Mean (MiaPaca-2 * PA) [11]: 11.53
Fold-Change (MiaPaca-2 * PA vs. MiaPaca-2 * control) [12]: 1.56
Mean (MiaPaca-2 * PA) [12]: 11.80
Fold-Change (MiaPaca-2 * PA vs. MiaPaca-2 * control) (gene PABPC1L, probeset 11721609_a_at, MiaPaca-2): 1.51
Mean (MiaPaca-2 * PA) (gene PABPC1L, probeset 11721609_a_at, MiaPaca-2, PA-treated): 9.20
Fold-Change (MiaPaca-2 * PA vs. MiaPaca-2 * control) [13]: 1.57
Mean (MiaPaca-2 * PA) [13]: 8.15
Fold-Change (MiaPaca-2 * PA vs. MiaPaca-2 * control) (gene PHLDB2, probeset 11737041_a_at, MiaPaca-2): 1.50
Mean (MiaPaca-2 * PA) (gene PHLDB2, probeset 11737041_a_at, MiaPaca-2, PA-treated): 11.63
Fold-Change (MiaPaca-2 * PA vs. MiaPaca-2 * control) [14]: 1.55
Mean (MiaPaca-2 * PA) [14]: 5.78
Fold-Change (MiaPaca-2 * PA vs. MiaPaca-2 * control) (gene PNP, probeset 11718400_a_at, MiaPaca-2): 1.50
Mean (MiaPaca-2 * PA) (gene PNP, probeset 11718400_a_at, MiaPaca-2, PA-treated): 10.30
Fold-Change (MiaPaca-2 * PA vs. MiaPaca-2 * control) (gene RBM3, probeset 11760141_s_at, MiaPaca-2): 1.52
Mean (MiaPaca-2 * PA) (gene RBM3, probeset 11760141_s_at, MiaPaca-2, PA-treated): 5.58
Fold-Change (MiaPaca-2 * PA vs. MiaPaca-2 * control) (gene RCAN1, probeset 11763514_x_at, MiaPaca-2): 1.51
Mean (MiaPaca-2 * PA) (gene RCAN1, probeset 11763514_x_at, MiaPaca-2, PA-treated): 7.84
Fold-Change (MiaPaca-2 * PA vs. MiaPaca-2 * control) (gene RPL37A, probeset 11759821_at, MiaPaca-2): 1.51
Mean (MiaPaca-2 * PA) (gene RPL37A, probeset 11759821_at, MiaPaca-2, PA-treated): 7.62
Fold-Change (MiaPaca-2 * PA vs. MiaPaca-2 * control) [15]: 1.59
Mean (MiaPaca-2 * PA) [15]: 5.23
Fold-Change (MiaPaca-2 * PA vs. MiaPaca-2 * control) [16]: 1.56
Mean (MiaPaca-2 * PA) [16]: 10.67
Fold-Change (MiaPaca-2 * PA vs. MiaPaca-2 * control) [17]: 1.61
Mean (MiaPaca-2 * PA) [17]: 10.95
Fold-Change (MiaPaca-2 * PA vs. MiaPaca-2 * control) [18]: 1.53
Mean (MiaPaca-2 * PA) [18]: 8.87
Fold-Change (MiaPaca-2 * PA vs. MiaPaca-2 * control) [19]: 1.54
Mean (MiaPaca-2 * PA) [19]: 7.60
Fold-Change (MiaPaca-2 * PA vs. MiaPaca-2 * control) [20]: 1.55
Mean (MiaPaca-2 * PA) [20]: 8.64
Fold-Change (MiaPaca-2 * PA vs. MiaPaca-2 * control) [21]: 1.56
Mean (MiaPaca-2 * PA) [21]: 8.54
Fold-Change (MiaPaca-2 * PA vs. MiaPaca-2 * control) [22]: 1.58
Mean (MiaPaca-2 * PA) [22]: 8.64
Fold-Change (MiaPaca-2 * PA vs. MiaPaca-2 * control) [23]: 1.53
Mean (MiaPaca-2 * PA) [23]: 7.98
Fold-Change (MiaPaca-2 * PA vs. MiaPaca-2 * control) (gene SLC3A2, probeset 11754529_x_at, MiaPaca-2): 1.52
Mean (MiaPaca-2 * PA) (gene SLC3A2, probeset 11754529_x_at, MiaPaca-2, PA-treated): 9.50
Fold-Change (MiaPaca-2 * PA vs. MiaPaca-2 * control) [24]: 1.58
Mean (MiaPaca-2 * PA) [24]: 5.46
Fold-Change (MiaPaca-2 * PA vs. MiaPaca-2 * control) [25]: 1.55
Mean (MiaPaca-2 * PA) [25]: 6.21
Fold-Change (MiaPaca-2 * PA vs. MiaPaca-2 * control) [26]: 1.55
Mean (MiaPaca-2 * PA) [26]: 9.61
Fold-Change (MiaPaca-2 * PA vs. MiaPaca-2 * control) (gene SMURF2, probeset 11748382_a_at, MiaPaca-2): 1.50
Mean (MiaPaca-2 * PA) (gene SMURF2, probeset 11748382_a_at, MiaPaca-2, PA-treated): 8.51
Fold-Change (MiaPaca-2 * PA vs. MiaPaca-2 * control) (gene SNHG12, probeset 11753858_a_at, MiaPaca-2): 1.50
Mean (MiaPaca-2 * PA) (gene SNHG12, probeset 11753858_a_at, MiaPaca-2, PA-treated): 10.82
Fold-Change (MiaPaca-2 * PA vs. MiaPaca-2 * control) (gene SPRY4, probeset 11736669_s_at, MiaPaca-2): 1.50
